Data taken from US7015241B2, “Appetite-stimulating agents and remedies for anorexia” (Eisai Co., Ltd., priority 2001, dated 2006).

Tests used:
mice = experiment: Toxicity observation on successive administration to mice for 15 days; type: in vivo; conditions: 100 mg/kg and 200 mg/kg successively for 15 days
Procedure: (§1) A subjective compound was suspended in saline containing 3.5% dimethylsulfoxide and 6.5% Tween 80, and intraperitoneally administered to BDF1 mice (7 weeks old, female) in a given amount once a day for 15 days (day 0 to day 14). To mice of a control group, saline containing 3.5% dimethylsulfoxide and 6.5% Tween 80 was intraperitoneally administered. Administration was conducted at 1 p.m. every day, and the body weight (day 0 to day 15) and the food intake since the preceding day (day 1 to day 15) were weighed immediately before the administration. The experiments were conducted using 5 mice per group for each of the drug-administered group and the control group. The numbers of the compound examples are the same as in the list described above (hereinafter, the same applies).
Thus, it is considered that the compound represented by the general formula (I) has low toxicity.

BDF1 mice = experiment: Appetite-stimulating and body weight-increasing effects, intraperitoneal administration once a day for 15 days; type: in vivo, mouse; conditions: BDF1 mice (7 weeks old, female), i.p. once a day for 15 days, vs control group; for body weight: FIG. 1; for food intake: FIG. 2
Procedure: as §1

Interleukin-6 = experiment: Gene expression analysis of white adipose tissues by GeneChip (Affymetrix) Murine Genome U74A; type: in vivo, mouse; conditions: day 15, 200 mg/kg i.p. once a day for 15 days, BDF1 mice, Accession X54542
Procedure: (§2) The compound of the Compound 17 was suspended in saline containing 3.5% dimethylsulfoxide and 6.5% Tween 80, and intraperitoneally administered to BDF1 mice (7 weeks old, female) in an amount of 200 mg/kg once a day for 15 days (day 0 to day 14). To mice of a control group, saline containing 3.5% dimethylsulfoxide and 6.5% Tween 80 was intraperitoneally administered. The experiments were conducted using 5 mice per group for each of the drug-administered group and the control group. On day 15, white adipose tissues were collected from the mice of the drug-administered group and the control group, and were examined for expression levels of mRNA using GeneChip (Affymetrix) Murine Genome U74A. The experimental operation was conducted in accordance with GeneChip Expression Analysis Technical Manual, and the quantitative analysis was conducted using GeneChip Software.

Interleukin-1-beta = experiment: as above; type: in vivo, mouse; conditions: day 15, 200 mg/kg i.p. once a day for 15 days, BDF1 mice, Accession M15131
Procedure: as §2

[1] = test system: griPGHS (Glucocorticoid-regulated inflammatory prostaglandin G/H synthase); experiment: as above; type: in vivo, mouse; conditions: day 15, 200 mg/kg i.p. once a day for 15 days, BDF1 mice, Accession M88242
Procedure: as §2

Compound	body weight increase (mice)	condition of the mice (mice)	toxicity (mice)	body weight (BDF1 mice)	food intake (BDF1 mice)	Expression level ratio (drug-administered group/control group), Interleukin-6 mRNA (Interleukin-6) [%]	Expression level ratio (drug-administered group/control group), Interleukin-1-beta mRNA (Interleukin-1-beta) [%]	Expression level ratio (drug-administered group/control group), griPGHS mRNA [1] [%]
Cc1ccc(NS(=O)(=O)c2cccc(C#N)c2)c2[nH]cc(C#N)c12 [Compound 94, 3-Cyano-N-(3-cyano-4-methyl-1H-indol-7-yl)-benzenesulfonamide]	body weight increase depending on dose	quite normal condition	no observation indicating toxicity	increased	increased	–	–	–
N#Cc1ccc(S(=O)(=O)Nc2cccc3c(Cl)c[nH]c23)cc1 [Compound 10, N-(3-Chloro-1H-indol-7-yl)-4-cyanobenzenesulfonamide]	body weight increase depending on dose	quite normal condition	no observation indicating toxicity	increased	increased	–	–	–
N#Cc1c[nH]c2c(NS(=O)(=O)c3cccc(Cl)c3)cccc12 [Compound 17, 3-Chloro-N-(3-cyano-1H-indol-7-yl)benzenesulfonamide]	body weight increase depending on dose	quite normal condition	no observation indicating toxicity	increased	increased	24	22	26
N#Cc1cccc(S(=O)(=O)Nc2cccc3c(C#N)c[nH]c23)c1 [Compound 51, 3-Cyano-N-(3-cyano-1H-indol-7-yl)benzenesulfonamide]	body weight increase depending on dose	quite normal condition	no observation indicating toxicity	increased	increased	–	–	–
